Legend:
[1] = tested on: mice; assay: Excitotoxicity assessment: kainate-induced seizures; type: in vivo, mouse; conditions: Tau^+/+ mice, single i.p. injection, 20-40 mg/kg, age 2-5 months
Method: (§1) Drugs were dissolved in PBS and delivered by intraperitoneal injection. Pentylenetetrazole (PTZ, Sigma, St. Louis, Mo.) was used at a concentration of 5 mg/ml and a dose of 40 mg/kg. Kainate (Tocris, Ellisville, Mo.) was used at a concentration of 2 mg/ml and doses ranging from 20-40 mg/kg. For mice given PTZ, each mouse was placed in a cage and observed for 20 min after administration, with video recording. An investigator blinded to genotype analyzed the videotapes to quantify the time course and severity of seizures according to published scales (9, 10). Seizures severity scores were: 0=normal behavior; 1=immobility; 2=generalized spasm, tremble, or twitch; 3=tail extension; 4=forelimb clonus; 5=generalized clonic activity; 6=bouncing or running seizures; 7=full tonic extension; 8=death. For mice given KA, each mouse was placed in a cage and observed for 3 hours after administration. An investigator blinded to genotype quantified the time course and severity of seizures according to published scales (11); the percentage of mice attaining stage 6 (generalized tonic-clonic seizures) is presented.
A value of P<0.05 was considered significant. […] Survival data (FIG. 2E) was analyzed with Kaplan-Meier statistics and post-hoc log rank tests. […] For other experiments, genotype differences were analyzed by ANOVA (repeated measures where indicated), using the Tukey test for post-hoc comparisons.

[2] = tested on: mice; assay: Excitotoxicity assessment: PTZ-induced seizures; type: in vivo, mouse; conditions: single i.p. injection 40 mg/kg
Method: as §1
A value of P<0.05 was considered significant. Error bars represent standard error of the mean. Survival data (FIG. 2E) was analyzed with Kaplan-Meier statistics and post-hoc log rank tests. Fisher's exact test was used to analyze occurrence of fatal status epilepticus after PTZ injection. Logistic regression was used to generate and compare dose-response curves for the proportion of mice seizing after KA administration (FIG. 4D). For other experiments, genotype differences were analyzed by ANOVA (repeated measures where indicated), using the Tukey test for post-hoc comparisons.

C=C(C)[C@H]1CN[C@H](C(=O)O)[C@H]1CC(=O)O [kainate, Kainate]
induction of generalized tonic-clonic seizures [1]: dose-dependently induced seizures

C1CCc2nnnn2CC1 [PTZ, Pentylenetetrazole]
mice suffering fatal status epilepticus ([2]; hAPP/Tau^+/+ mice, age 4-7 months): 20%
death after PTZ ([2]; hAPP/Tau^+/− and hAPP/Tau^−/− mice): no hAPP/Tau^+/− or hAPP/Tau^−/− mice died
lethality of the dose ([2]; mice without hAPP): non-lethal
